In patent publication US20220169654A1, “New Organic Compounds” (Servier Pharmaceuticals LLC, priority 2020, published 2022):

How the values were obtained:
HCT116 MTAP+/+ = assay: Inhibition of cellular proliferation, 4 days, Cell Titer Glo, HCT116 MTAP+/+; format: cell-based; conditions: Homo sapiens, HCT-116, 96 h, IC50 bin with Max Inh., read-out: 4 Day Relative Growth Inhibition (MTAP +/+)
Outline: (§1)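 IC50 derived from blank-corrected ATP luminescence (Cell Titer Glo) expressed relative to within-plate 0.2% DMSO wells. Compound, as a 10-point 3-fold series, was added 24 h after seeding the MTAP+/+ or MTAP−/− HCT116 cells and incubated 4 days at 37° C./5% CO2.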

[1] = system: SAM in HCT116 human colon carcinoma cell line with MTAP gene deleted (MTAP −/−); assay: Cellular assay of target engagement (SAM), LC-MS/MS, 72 hrs; format: cell-based; conditions: HCT-116, IC50 bin with Max Inh., read-out: Cell 72 h SAM Inhibition (MTAP −/−)
Outline: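 SAM levels were quantified by LC-MS/MS (m/z 399.2→250.1, d3-SAM internal standard) from cold methanol/acetic acid extracts, yielding IC50. Compound was applied as a 10-point 3-fold series for 72 hrs to MTAP −/− HCT116 cells seeded 24 hours before.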

MAT2A homodimer = target: T1, MAT2A homodimer (Homo sapiens, UniProt P31153); assay: MAT2A inhibition (biochemical, liberated phosphate, PiColorLock Gold); conditions: recombinant MAT2A homodimer; IC50 bin with Max Inh.; read-out: Enzyme Inhibition Bin
T1 construct: inferred from Ni sepharose purification with imidazole elution; made in house; host or cells: Sf9 insect cells, baculovirus (Bac to Bac, pFASTBAC1)
Outline: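 Enzyme at 4 μg/mL and compound equilibrated 60 min at 25 °C, then 60 min reaction after adding substrate mix (500 μM ATP, 400 μM methionine). Released phosphate quantified by colorimetric kit against a phosphate standard curve to give IC50. Secondary format used 1 μg/mL enzyme with 5 h incubation.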

HCT116 MTAP−/− = assay: Inhibition of cellular proliferation, 4 days, Cell Titer Glo, HCT116 MTAP−/−; format: cell-based; conditions: Homo sapiens, HCT-116, 96 h, IC50 bin with Max Inh., read-out: 4 Day Relative Growth Inhibition (MTAP −/−)
Outline: as §1

T1 sequence (P31153 whole entry): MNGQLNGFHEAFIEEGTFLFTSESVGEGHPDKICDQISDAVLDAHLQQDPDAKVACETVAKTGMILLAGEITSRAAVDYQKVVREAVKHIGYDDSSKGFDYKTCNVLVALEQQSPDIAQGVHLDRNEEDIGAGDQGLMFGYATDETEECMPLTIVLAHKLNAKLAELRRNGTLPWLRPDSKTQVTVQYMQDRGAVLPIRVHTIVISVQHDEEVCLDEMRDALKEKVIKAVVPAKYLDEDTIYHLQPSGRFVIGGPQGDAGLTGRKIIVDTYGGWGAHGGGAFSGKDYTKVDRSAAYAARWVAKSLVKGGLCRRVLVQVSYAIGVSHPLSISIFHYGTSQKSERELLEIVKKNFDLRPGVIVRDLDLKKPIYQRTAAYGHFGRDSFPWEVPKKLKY

SMILES | IC50 (HCT116 MTAP+/+) | IC50 [1] | IC50 (MAT2A homodimer) | IC50 (HCT116 MTAP−/−)
COc1ccc(-c2c(=O)n(-c3ccc4nc(C)n(C)c4c3)nc3ncn(CC4CC4)c23)cc1 [Example 195, 5-(cyclopropylmethyl)-2-(1,2-dimethyl-1H-benzo[d]imidazol-6-yl)-4-(4-methoxyphenyl)-2,5-dihydro-3H-imidazo[4,5-c]pyridazin-3-one] | > 1 µM | < 0.1 µM | < 0.1 µM | < 0.1 µM
Cn1cc2cc(-n3nc4c(C(F)F)cn(CC5CC5)c4c(-c4ccc(C5CC5)nc4)c3=O)ccc2n1 [Example 240, 5-(cyclopropylmethyl)-4-(6-cyclopropylpyridin-3-yl)-7-(difluoromethyl)-2-(2-methyl-2H-indazol-5-yl)-2,5-dihydro-3H-pyrrolo[3,2-c]pyridazin-3-one] | 0.1 to 1 µM | < 0.1 µM | < 0.1 µM | < 0.1 µM
CCCn1cc(C#N)c2nn(-c3ccc4nn(C)cc4c3)c(=O)c(-c3ccc(C)nc3)c21 [Example 145, 2-(2-methyl-2H-indazol-5-yl)-4-(6-methylpyridin-3-yl)-3-oxo-5-propyl-3,5-dihydro-2H-pyrrolo[3,2-c]pyridazine-7-carbonitrile] | 0.1 to 1 µM | 0.1 to 1 µM | < 0.1 µM | 0.1 to 1 µM
Cc1ccc(-c2c(=O)n(-c3ccc4nn(C)cc4c3)nc3c(C(N)=O)cn(CC4CC4)c23)cn1 [Example 175, 5-(cyclopropylmethyl)-2-(2-methyl-2H-indazol-5-yl)-4-(6-methylpyridin-3-yl)-3-oxo-3,5-dihydro-2H-pyrrolo[3,2-c]pyridazine-7-carboxamide] | > 1 µM | 0.1 to 1 µM | < 0.1 µM | 0.1 to 1 µM
CCc1ccc(-c2c(=O)n(-c3ccc4nn(C)cc4c3)nc3c(C#N)cn(CC4CC4)c23)cn1 [Example 136, 5-(cyclopropylmethyl)-4-(6-ethylpyridin-3-yl)-2-(2-methyl-2H-indazol-5-yl)-3-oxo-3,5-dihydro-2H-pyrrolo[3,2-c]pyridazine-7-carbonitrile] | 0.1 to 1 µM | < 0.1 µM | < 0.1 µM | < 0.1 µM
[2H]C([2H])([2H])Oc1ccc(-n2nc3c(C#N)cn(CC4CC4)c3c(-c3ccc(C(F)F)nc3)c2=O)cc1 [Example 137, 5-(cyclopropylmethyl)-4-(6-(difluoromethyl)pyridin-3-yl)-2-(4-(methoxy-d3)phenyl)-3-oxo-3,5-dihydro-2H-pyrrolo[3,2-c]pyridazine-7-carbonitrile] | > 1 µM | 0.1 to 1 µM | < 0.1 µM | 0.1 to 1 µM
CC(C)c1ccc(-c2c(=O)n(-c3ccc4nn(C)cc4c3)nc3ccn(CC4CC4)c23)cn1 [Example 129, 5-(cyclopropylmethyl)-4-(6-isopropylpyridin-3-yl)-2-(2-methyl-2H-indazol-5-yl)-2,5-dihydro-3H-pyrrolo[3,2-c]pyridazin-3-one] | > 1 µM | 0.1 to 1 µM | < 0.1 µM | < 0.1 µM
CCc1ccc(-c2c(=O)n(-c3ccc4nc(C)n(C)c4c3)nc3c(C#N)cn(CC4CC4)c23)cn1 [Example 152, 5-(cyclopropylmethyl)-2-(1,2-dimethyl-1H-benzo[d]imidazol-6-yl)-4-(6-ethylpyridin-3-yl)-3-oxo-3,5-dihydro-2H-pyrrolo[3,2-c]pyridazine-7-carbonitrile] | > 1 µM | < 0.1 µM | < 0.1 µM | < 0.1 µM
Cc1ccc(-c2c(=O)n(-c3ccc4nn(C)cc4c3)nc3c(C#N)cn(CC4CC4)c23)cn1 [Example 104, 5-(cyclopropylmethyl)-2-(2-methyl-2H-indazol-5-yl)-4-(6-methylpyridin-3-yl)-3-oxo-3,5-dihydro-2H-pyrrolo[3,2-c]pyridazine-7-carbonitrile] | > 1 µM | < 0.1 µM | < 0.1 µM | < 0.1 µM
Cn1cc2cc(-n3nc4c(Cl)cn(CC5CC5)c4c(-c4ccc(C5CC5)nc4)c3=O)ccc2n1 [Example 233, 7-chloro-5-(cyclopropylmethyl)-4-(6-cyclopropylpyridin-3-yl)-2-(2-methyl-2H-indazol-5-yl)-2,5-dihydro-3H-pyrrolo[3,2-c]pyridazin-3-one] | 0.1 to 1 µM | < 0.1 µM | < 0.1 µM | < 0.1 µM
Cn1cc2cc(-n3nc4[nH]c(=O)n(CC5CC5)c4c(-c4ccc(C5CC5)nc4)c3=O)ccc2n1 [Example 203, 5-(cyclopropylmethyl)-4-(6-cyclopropylpyridin-3-yl)-2-(2-methyl-2H-indazol-5-yl)-2,7-dihydro-3H-imidazo[4,5-c]pyridazine-3,6(5H)-dione] | 0.1 to 1 µM | < 0.1 µM | < 0.1 µM | < 0.1 µM
Cn1cc2cc(-n3nc4c(C(N)=O)cn(CC5CC5)c4c(-c4ccc(OC(F)F)cc4)c3=O)ccc2n1 [Example 168, 5-(cyclopropylmethyl)-4-(4-(difluoromethoxy)phenyl)-2-(2-methyl-2H-indazol-5-yl)-3-oxo-3,5-dihydro-2H-pyrrolo[3,2-c]pyridazine-7-carboxamide] | > 1 µM | < 0.1 µM | < 0.1 µM | < 0.1 µM
CCCn1cc(C#N)c2nn(-c3ccc4nn(C)cc4c3)c(=O)c(-c3ccc(C4CC4)nc3)c21 [Example 127, 4-(6-cyclopropylpyridin-3-yl)-2-(2-methyl-2H-indazol-5-yl)-3-oxo-5-propyl-3,5-dihydro-2H-pyrrolo[3,2-c]pyridazine-7-carbonitrile] | > 1 µM | < 0.1 µM | < 0.1 µM | 0.1 to 1 µM
Cc1ccc(-c2c(=O)n(-c3ccc4nn(C)cc4c3)nc3ncn(CC4CC4)c23)cn1 [Example 187, 5-(cyclopropylmethyl)-2-(2-methyl-2H-indazol-5-yl)-4-(6-methylpyridin-3-yl)-2,5-dihydro-3H-imidazo[4,5-c]pyridazin-3-one] | > 1 µM | 0.1 to 1 µM | < 0.1 µM | 0.1 to 1 µM
Cn1cc2cc(-n3nc4c(C(F)(F)F)cn(CC5CC5)c4c(-c4ccc(C5CC5)nc4)c3=O)ccc2n1 [Example 246, 5-(cyclopropylmethyl)-4-(6-cyclopropylpyridin-3-yl)-2-(2-methyl-2H-indazol-5-yl)-7-(trifluoromethyl)-2,5-dihydro-3H-pyrrolo[3,2-c]pyridazin-3-one] | 0.1 to 1 µM | < 0.1 µM | < 0.1 µM | < 0.1 µM
O=c1c(-c2ccc(OC(F)F)cc2)c2c(ccn2CC2CC2)nn1-c1cn[nH]c1 [Example 231, 5-(cyclopropylmethyl)-4-(4-(difluoromethoxy)phenyl)-2-(1H-pyrazol-4-yl)-2,5-dihydro-3H-pyrrolo[3,2-c]pyridazin-3-one] | > 1 µM | 0.1 to 1 µM | < 0.1 µM | 0.1 to 1 µM
COc1ccc(-c2c(=O)n(-c3ccc4nn(C)cc4c3)nc3ccn(CC4CC4)c23)cn1 [Example 110, 5-(cyclopropylmethyl)-4-(6-methoxypyridin-3-yl)-2-(2-methyl-2H-indazol-5-yl)-2,5-dihydro-3H-pyrrolo[3,2-c]pyridazin-3-one] | > 1 µM | < 0.1 µM | < 0.1 µM | < 0.1 µM
